Assay [1] has as its system MT450 breast cancer cells. The assay can be described thus: MT450 rat breast cancer model, subcutaneous tumor growth and lung metastasis. Format: in vivo. The protocol:
MT450 cells were grown in DMEM/W10% FCS medium and tested for absence of mycoplasms just prior to injection. Cells were washed twice in PBS and suspended to a density of 5×10^6 cells per ml of PBS. 5×10^5 cells in 0.1 ml of PBS were injected into each rat. […] Rats were left to grow primary tumors for 21 days. […] The solution was sterile filtered. The compound was applied by i.p. injection. […] Two doses per day were applied. Control animals received equal amounts of a sterile isotonic sodium chloride solution.
The experiment was terminated when tumor size in one of the rats of the control group had reached the legal limit of 50 mm. Necropsy at that time was performed on all rats of the experiment to assess lung metastasis. […] Metastasis was also found in 7 out of 8 VPA-treated rats. However, size and number of metastases were much smaller compared to NaCl-treated rats. A dose finding experiment had shown that the chosen dosage protocol lead to high initial serum levels (e.g. 3.6 mM at 1 hour after i.p. injection) which rapidly dropped (e.g. 0.25 mM at 4 hours after i.p. injection) below those levels which are maintained during therapy of epilepsy in human.

For the next assay, the system named is human endothelial cells. Kind of assay: endothelial cell activation (anti-angiogenesis). It counts as cell-based. As to conditions: VPA and inhibitors of VEGF-R tyrosine kinase activity at the same time, vs individual drugs alone. The protocol: In addition, the effect of inhibitors of vascular endothelial growth factor receptor (VEGF-R) tyrosine kinase activity was tested on these cells since VEGF-R inhibitors are known to act anti-angiogenic in model systems of tumor-associated endothelial cell activation (e.g. vascular tube formation and/or endothelial cell activation).

Assay [2] concerns HCT-15 colon cancer cells. The assay can be described thus: SRB-assay, reduction in total cellular biomass. It counts as cell-based, human. How it is done: The reduction in cellular biomass was measured by SRB-assay. For this assay cells were seeded in 96 well culture dishes at densities between 3000 and 8000 cells per well. […] Cultures were fixed with cold TCA producing a final TCA concentration of 10%. After 1 hour of incubation at 4° C. the cells were washed five times with water and air dried. Fixed cells were stained for 30 minutes with 0,4% (wt/vol) Sulforhodamine B (SRB) dissolved in 1% acetic acid and washed four times with 1% acetic acid to remove unbound dye. After air drying bound dye was solubilized with 10 mM unbuffered Tris base (pH 10,5) for 5 minutes. Optical densities were read on a Titertek Multiskan Plus spectrophotometric plate reader at 550 nm. Six test wells for each dose-response were set in parallel with 12 growth control wells per cell line. A measure of the cell population density at time 0 (To; the time at which the drug was added) was also made from 12 extra reference wells of cells fixed with TCA just prior to drug addition to the test plates. Background OD of complete medium with 5% FBS fixed and stained as described above was also determined in 12 separate wells. From the unprocessed OD data from each microtiter plate the background OD measurements (i.e. OD of complete medium plus stain and OD of cells at T0) were subtracted thus giving the reduction of cellular biomass of the cells.
This was in particular obvious when lower concentrations of 5-FU were used. E.g. […] Thus, this combinatorial activity of these two drugs must be explained via a synergistic activity of this treatment.

The subject of assay [3] is MDA-MB468 breast carcinoma cells. The assay can be described thus: MTT cell viability assay. Format: cell-based, Human. The protocol:
(§1) Human MDA-MB468, MDA-MB453 and SKBR3 breast carcinoma cells and A431 squamous cell carcinoma cells were maintained in Dulbecco's modified Eagle's medium (DMEM, BioWhittaker, Verviers, Belgium) supplemented with 10% heat inactivated fetal bovine serum (FBS), 2 mM L-glutamine, 100 units/ml penicillin, and 100 μg/ml streptomycin.
(§2) Tumor cells were seeded in 96 well plates at a density of 1×10^4 cells/well in normal growth medium. […] Control cells were grown in the absence of valproic acid or antibodies. 10 μl of 10 mg/ml 3-(4,5-dimethylthiazole-2-yl)-2,5 diphenyltetrazolium bromide (MTT) (Sigma, Deisenhofen, Germany) in PBS were added to each well and the cells were incubated for another 3 h. Cells were lysed by the addition of 90 μl of lysis buffer (20% SDS in 50% dimethyl formamide, pH 4.7). After solubilization of the formazan product, the absorption at 590 nm was determined in a microplate reader (Dynatech, Denkendorf, Germany) and the relative amount of viable cells in comparison to cells cultured without the addition of valproic acid or antibodies was calculated.

Assay [4] has as its system MDA-MB453 breast carcinoma cells. The assay can be described thus: MTT cell viability assay. It counts as cell-based, Human. Particulars: 70 h. The protocol:
as §1, §2
(Formazan colour is commonly taken as a measure of viable cells.)

As for `CCCC(CCC)C(=O)O` [VPA, 2-propylpentanoic acid], the “size and number of metastases compared to NaCl-treated rats” value in assay [1] (1.25 mmol VPA per kg BW i.p., two doses per day) was “much smaller”. For the same compound, the “growth of the primary tumors (tumor volume)” value in assay [1] (1.25 mmol VPA per kg BW i.p., two doses per day, vs sodium chloride solution) is “delays tumor expansion”. Also, the “rats with lung metastasis at necropsy” value in assay [1] (VPA-treated rats, 1.25 mmol/kg i.p. twice daily, all rats of the control group showed metastasis) was 7 out of 8. Also, in the assay with human endothelial cells, the “activation of endothelial cells” value was “at least additive effect”. Also, the “reduction in cellular biomass” value in assay [2] (0.75 mM VPA in combination with 5-FU, 48 hours, compared to VPA or 5-FU alone) is “synergistic reduction in cellular biomass”. Also, the “decrease in cellular biomass” value in assay [2] (5-FU lower than 0.5 μM in combination with 0.75 mM VPA, compared to 0.75 mM VPA alone) is “stronger decrease in cellular biomass”. Also, the “cell viability, combination treatment” value in assay [3] (3 mM VPA + 2 μg/ml c225, 70 h) is recorded as “synergistic reduction of cell viability”; in assay [4] (3 mM VPA + 2 μg/ml Herceptin), “synergistic reduction of cell viability”. In addition, the cell viability result is “inhibit the viability” in assay [3] (single reagent, 70 h, valproic acid 3 mM, c225 2 μg/ml) and “inhibit the viability” in assay [4] (single reagent, valproic acid 3 mM, Herceptin 2 μg/ml).

The values are drawn from patent US20050038113A1, “Valproic acid and derivatives for the combinatorial therapeutic treatment of human cancers and for the treatment of tumor metastasis and minimal residual disease” (G2M Cancer Drugs AG, priority 2001, published 2005).
